In ChEMBL document CHEMBL5370611, “Discovery of 4,5,6,7-Tetrahydropyrazolo[1.5-a]pyrizine Derivatives as Core Protein Allosteric Modulators (CpAMs) for the Inhibition of Hepatitis B Virus” (J Med Chem, 2023):
pEC50: −log10 of the molar value. Values after ≈ are worked out from the molar mass of the structure shown. Active and inactive are the calls of the source. The calls are words filed in the database; no cut-off is given here.

Experiments:
[1] = Resistance index, ratio of EC50 for wild type Hepatitis B virus to EC50 for Hepatitis B virus harboring M204 V transfected in human HepG2 cells measured after 6 days by qPCR analysis; type: functional; details: time 6 day
[2] = Resistance index, ratio of EC50 for wild type Hepatitis B virus to EC50 for Hepatitis B virus harboring L180M/M204V transfected in human HepG2 cells measured after 6 days by qPCR analysis; type: functional; details: time 6 day
[3] = Resistance index, ratio of EC50 for wild type Hepatitis B virus to EC50 for Hepatitis B virus harboring A181T/N236T transfected in human HepG2 cells measured after 6 days by qPCR analysis; type: functional; details: time 6 day
[4] = Resistance index, ratio of EC50 for wild type Hepatitis B virus to EC50 for Hepatitis B virus harboring A181V/N236T transfected in human HepG2 cells measured after 6 days by qPCR analysis; type: functional; details: time 6 day
[5] = Resistance index, ratio of EC50 for wild type Hepatitis B virus to EC50 for Hepatitis B virus harboring […] transfected in human HepG2 cells measured after 6 days by qPCR analysis; type: functional; details: time 6 day
Hepatitis B virus [6] = test: Inhibition of HBV Cp150 dimer assembly assessed as formation of large abnormal particles at 20 uM incubated for 2 hrs by transmission electron microscopy
Hepatitis B virus [7] = test: Inhibition of HBV replication transfected in human HepG2.2.15 cells assessed as inhibition of encapsidated DNA formation in cell lysate incubated for 5 days by SDS-PAGE analysis; type: functional, organism-based; details: dose <= 10.0 µM, time 5.0 day
Hepatitis B virus [8] = test: Inhibition of HBV replication transfected in human HepG2.2.15 cells assessed as assessed as induction of capsid degradation in cell lysate at upto 10 uM incubated for 5 days by SDS-PAGE analysis; type: functional, organism-based; details: time 5.0 day
Hepatitis B virus [9] = test: Inhibition of HBV replication transfected in human HepG2.2.15 cells assessed as assessed as induction of total core protein degradation in cell lysate at upto 10 uM incubated for 5 days by SDS-PAGE analysis; type: functional, organism-based; details: time 5.0 day
[10] = Resistance index, ratio of EC50 for wild type Hepatitis B virus to EC50 for Hepatitis B virus harboring A181T transfected in human HepG2 cells measured after 6 days by qPCR analysis; type: functional; details: time 6 day
[11] = Resistance index, ratio of EC50 for wild type Hepatitis B virus to EC50 for Hepatitis B virus harboring A181V transfected in human HepG2 cells measured after 6 days by qPCR analysis; type: functional; details: time 6 day
[12] = Resistance index, ratio of EC50 for wild type Hepatitis B virus to EC50 for Hepatitis B virus harboring N236T transfected in human HepG2 cells measured after 6 days by qPCR analysis; type: functional; details: time 6 day
[13] = Resistance index, ratio of EC50 for wild type Hepatitis B virus to EC50 for Hepatitis B virus harboring L180M/M204 V/A194T transfected in human HepG2 cells measured after 6 days by qPCR analysis; type: functional; details: time 6 day
Hepatitis B virus [14] = test: Antiviral activity against HBV infected in human HepG2.2.15 cells assessed as reduction in HBV DNA replication measured after 5 days by qPCR analysis; type: functional, organism-based; details: HepG2.2.15, 120 h
[15] = Cytotoxicity against human HepDE19 cells assessed as reduction in cell viability measured after 5 days by CCK-8 method; type: functional; details: HepDE19, 120 h, time 5 day
[16] = Selectivity index, ratio of CC50 for human HepDE19 cells assessed as reduction in cell viability to EC50 for HBV infected in human HepG2.2.15 cells assessed as reduction in HBV DNA replication; type: toxicity, cell-based; details: HBV-infected HepG2.2.15 cells (EC50)
[17] = Metabolic stability in mouse liver microsomes assessed as clearance at 1 uM preincubated for 10 mins and measured upto 30 mins in presence of NADPH generating system by LC-MS/MS analysis; type: ADME, Microsome; details: time < 40 min
[18] = Metabolic stability in human liver microsomes assessed as clearance at 1 uM preincubated for 10 mins and measured upto 30 mins in presence of NADPH generating system by LC-MS/MS analysis; type: ADME, Microsome; details: time < 40 min
[19] = Lyophilization solubility of the compound in phosphate buffer at pH 6.5 incubated for 1 hr under stirring condition and 2 hrs under shaking condition by HPLC-UV analysis; type: physicochemical
[20] = Half life in C57BL/6 mouse plasma at 2 mg/kg, iv administered as single dose measured upto 24 hrs by LC-MS/MS analysis; type: ADME, organism-based
[21] = Volume of distribution at steady state in C57BL/6 mouse plasma at 2 mg/kg, iv administered as single dose measured upto 24 hrs by LC-MS/MS analysis; type: ADME, organism-based; details: read-out: Vdss
[22] = Clearance in C57BL/6 mouse plasma at 2 mg/kg, iv administered as single dose measured upto 24 hrs by LC-MS/MS analysis; type: ADME, organism-based
[23] = Cmax in C57BL/6 mouse plasma at 5 mg/kg, po administered as single dose measured upto 24 hrs by LC-MS/MS analysis; type: ADME, organism-based; parameters: dose 5 mg/kg, time < 24 hrs, route po
[24] = AUC (0 to infinity) in C57BL/6 mouse plasma at 2 mg/kg, iv administered as single dose measured upto 24 hrs by LC-MS/MS analysis; type: ADME, organism-based; parameters: dose 2 mg/kg, time < 24 hrs, route iv
[25] = AUC (0 to infinity) in C57BL/6 mouse plasma at 5 mg/kg, po administered as single dose measured upto 24 hrs by LC-MS/MS analysis; type: ADME, organism-based; parameters: time < 24 hrs, dose 5 mg/kg, route po
[26] = Oral bioavailability in C57BL/6 mouse plasma at 5 mg/kg administered as single dose measured upto 24 hrs by LC-MS/MS analysis; type: ADME, organism-based
[27] = AUC (0 to infinity) in C57BL/6 mouse liver at 5 mg/kg, po administered as single dose measured upto 24 hrs by LC-MS/MS analysis; type: ADME, organism-based; parameters: time < 24 hrs, dose 5 mg/kg, route po
[28] = Ratio of AUC (0 to infinity) in liver to plasma of C57BL/6 mouse liver at 5 mg/kg, po administered as single dose measured upto 24 hrs by LC-MS/MS analysis; type: ADME, organism-based; details: read-out: Ratio AUC
[29] = Plasma protein binding in mouse assessed as free fraction incubated for 5 hrs by LC-MS/MS analysis; type: ADME, cell-free
[30] = Resistance index, ratio of EC50 for wild type Hepatitis B virus to EC50 for Hepatitis B virus harboring L180M/M204 V/S202G transfected in human HepG2 cells measured after 6 days by qPCR analysis; type: functional; details: time 6 day
[31] = Resistance index, ratio of EC50 for wild type Hepatitis B virus to EC50 for Hepatitis B virus harboring L180M/M204 V/M250 V/[…] transfected in human HepG2 cells measured after 6 days by qPCR analysis; type: functional; details: time 6 day
[32] = Resistance index, ratio of EC50 for wild type Hepatitis B virus to EC50 for Hepatitis B virus harboring L180M/M204 V/T184G/[…] transfected in human HepG2 cells measured after 6 days by qPCR analysis; type: functional; details: time 6 day

SMILES	pEC50 (Hepatitis B virus [14])	CC50 [15] [µM]	selectivity ratio [16]	CLhep predicted at 1 µM [17] [mL/min/kg]	CLhep predicted at 1 µM [18] [mL/min/kg]	solubility at 3 h [19] [µg/mL]	other results
Nc1ccn([C@@H]2CS[C@H](CO)O2)c(=O)n1 [LAMIVUDINE]	–	–	–	–	–	–	Ratio EC50 [1]: 19; Ratio EC50 [2]: >225; Ratio EC50 [3]: 29; Ratio EC50 [4]: 5.8
Cc1cn([C@@H]2C[C@@H](O)[C@H](CO)O2)c(=O)[nH]c1=O [TELBIVUDINE]	–	–	–	–	–	–	Ratio EC50 [5]: >165
COC(=O)C1=C(CN2CC(F)(F)C[C@H]2C(=O)O)NC(c2nccs2)=N[C@H]1c1ccc(F)cc1Cl	–	–	–	–	–	–	Activity (Hepatitis B virus [6]): Active; inhibition (Hepatitis B virus [7]): Dose-Dependent Effect; inhibition (Hepatitis B virus [8]): Active; inhibition (Hepatitis B virus [9]): Active
C[C@H](Cn1cnc2c(N)ncnc21)OCP(=O)(O)O [TENOFOVIR ANHYDROUS]	–	–	–	–	–	–	Ratio EC50 [3]: 3.3; Ratio EC50 [4]: 3.8; Ratio EC50 [10]: 0.9; Ratio EC50 [11]: 1.5; Ratio EC50 [12]: 3.3; Ratio EC50 [13]: 4.3
O=C(Nc1ccc(Cl)c(F)c1)N1CCn2ncc(-c3ccc(F)cc3)c2C1	7.15	31	443	60	15	–	Activity (Hepatitis B virus [6]): inactive
C[C@H]1Cn2ncc(N3CCCC3=O)c2CN1C(=O)Nc1cc(F)c(F)c(F)c1	7.38	> 100	> 2380	29	6.5	430 (≈ 1090 µM)	half-life [20]: 60 min; Vd [21]: 1 L/kg; clearance [22]: 13.7 mL/min/kg; Cmax [23]: 1130 ng/mL; AUC(0-inf) [24]: 2440 ng·h/mL; AUC(0-inf) [25]: 2640 ng·h/mL; bioavailability [26]: 43%; AUC(0-inf) [27]: 8550 ng·h/mL; Kp at 24 h [28]: 3.2; fraction unbound at 5 h [29]: 0.18
C[C@H]1Cn2ncc(N3CCCC3=O)c2CN1C(=O)Nc1ccc(F)c(Cl)c1	7.44	94	2600	50	11	330 (≈ 842 µM)	Ratio EC50 [1]: 1.8; Ratio EC50 [2]: 2.6; Ratio EC50 [3]: 2.2; Ratio EC50 [4]: 2.2; Ratio EC50 [10]: 1.6; Ratio EC50 [11]: 2.1; Ratio EC50 [12]: 1.4; Ratio EC50 [13]: 2.2; Ratio EC50 [30]: 1.9; Ratio EC50 [31]: 2.4; Ratio EC50 [32]: 2.9; Ratio EC50 [5]: 1.9; inhibition (Hepatitis B virus [7]): Dose-Dependent Effect; inhibition (Hepatitis B virus [8]): inactive; inhibition (Hepatitis B virus [9]): inactive
O=C(Nc1ccc(F)c(Cl)c1)N1CCn2ncc(-c3ccc(F)cc3F)c2C1	7.44	42	1180	66	17	< 1	–
C[C@@H]1[C@H](C)N(C(=O)Nc2cc(F)c(F)c(F)c2)Cc2c(N3CCCC3=O)cnn21	7.40	> 100	> 2500	45	8.7	515 (≈ 1260 µM)	–
O=C(Nc1ccc(F)c(Cl)c1)N1CCn2ncc(N3CCOCC3=O)c2C1	6.81	> 100	> 645	20	6.2	158 (≈ 401 µM)	–
O=C(Nc1cccnc1)N1CCn2ncc(-c3ccc(F)cc3)c2C1	5.52	> 100	> 33	49	6	98 (≈ 290 µM)	–
O=C(Nc1ccccc1)N1CCn2cnc(-c3ccc(F)cc3)c2C1	6.54	> 100	> 349	76	14	< 1	–
C=C1[C@H](CO)[C@@H](O)C[C@@H]1n1cnc2c(=O)[nH]c(N)nc21 [ENTECAVIR ANHYDROUS]	–	–	–	–	–	–	Ratio EC50 [30]: 62.8; Ratio EC50 [31]: 712.4; Ratio EC50 [32]: 607.1
Nc1ncnc2c1ncn2CCOCP(=O)(O)O [ADEFOVIR]	–	–	–	–	–	–	Ratio EC50 [10]: 2.2; Ratio EC50 [11]: 1.6; Ratio EC50 [12]: 2.5
